Reference: paper PMC4645160, “Targeting kinases with anilinopyrimidines: discovery of N-phenyl-N’-[4-(pyrimidin-4-ylamino)phenyl]urea derivatives as selective inhibitors of class III receptor tyrosine kinase subfamily” (Scientific Reports, 2015)
Values joined by “and” are separate entries in the source; they are usually repeats but may differ in a detail not shown here. Equal entries are not always repeated.

Columns and labels:
[1] = system: Lewis Lung Carcinoma (LLC); test: In vivo anticancer activity toward Lewis Lung Carcinoma (LLC); conditions: LLC in C57BL mice, 27 at 7.5 mg/kg, CDDP at 1.5 mg/kg
Excerpt: (§1) Besides, it was as cytotoxic as 19 towards cancer cells while showing a more favorable selectivity index. On these basis, compound 27 was chosen for in vivo experiments against a syngeneic murine solid tumor model, the murine Lewis Lung Carcinoma (LLC). The tumor growth inhibition induced by 27 was compared with that promoted by cisplatin (CDDP), the most common chemotherapeutic drug used in the treatment of lung cancers. Nine days after tumor inoculation, tumor-bearing mice were randomized into vehicle control and treatment groups (8 mice per group). Control mice received the vehicle (0.2%v/v EtOH and 99.8%v/v of a saline solution), whereas treated groups received daily doses of 27 (7.5 mg · kg^−1 in the vehicle solution composed of 0.2%v/v EtOH and 99.8%v/v of saline solution) or CDDP (1.5 mg · kg^−1 in saline solution). Tumor growth was estimated at day 20 (Fig. 7a). As an indication of the adverse side effects, changes in the body weights of tumor-bearing mice were monitored at day 1 and daily from day 9.
Figure 7 In vivo testing of compound 27. Lewis lung carcinoma (LLC) was implanted i.m. (2 · 10^6 cells inoculum) into the right hind leg of 8-week old imbred C57BL mice. Nine days after tumor inoculation (palpable tumor), tumor-bearing mice were randomized into vehicle control and treatment groups (8 mice per group). Compound 27 was dosed daily at 7.5 mg/kg ip and CDDP was dosed daily at 1.5 mg/kg ip. At day 20, animals were sacrificed (i.e., before tumor can cause the animal discomfort), the legs were amputated at the proximal end of the femur, and the inhibition of tumor growth was determined according to the difference in weight of the tumor-bearing leg and the healthy leg of the animals expressed as % referred to the control animals. Control was constituted by vehicle (0.2%v/v EtOH and 99.8%v/v of saline solution). CDDP was used as positive reference. Both 27 and CDDP were administered at the highest not toxic doses (7.5 and 1.5 mg/kg, respectively), as determined by MTD studies. (a) Average tumor weight (g) after 20 days of treatment with control or compounds. (b) Percentage of reduction in tumor growth after 20 days of treatment with respect to control mice. (c) Body weight changes. The body weight changes of LLC bearing C57BL mice treated with vehicle or tested compounds. Each drug was administered daily after 9 days from the tumor cell inoculum. Weights were measured at day 1 and daily from day 9. Error bars indicate the standard deviation.
All studies involving animal testing were carried out in accordance with the ethical guidelines for animal research adopted by the University of Padua, acknowledging the Italian regulation (D.L.G.S. 116/92) and European Directive 86/609/EEC as to the animal welfare and protection and the related codes of practice. […]

[2] = Body weight changes of LLC bearing mice; format: in vivo; conditions: mouse, in vivo, ip, 1.5 mg/kg
Excerpt: as §1, with “Control mice received the vehicle (0.2%v/v EtOH and 99.8%v/v of a saline solution), whereas treated groups received daily doses of 27 (7.5 mg · kg^−1 in the vehicle solution composed of 0.2%v/v EtOH and 99.8%v/v of saline solution) or CDDP (1.5 mg · kg^−1 in saline solution). Tumor growth was estimated at day 20 (Fig. 7a).” left out
Figure 7 In vivo testing of compound 27. […] At day 20, animals were sacrificed (i.e., before tumor can cause the animal discomfort), the legs were amputated at the proximal end of the femur, and the inhibition of tumor growth was determined according to the difference in weight of the tumor-bearing leg and the healthy leg of the animals expressed as % referred to the control animals. […] Both 27 and CDDP were administered at the highest not toxic doses (7.5 and 1.5 mg/kg, respectively), as determined by MTD studies. […] Weights were measured at day 1 and daily from day 9. […]

[3] = MTD studies (highest not toxic dose); format: in vivo; conditions: daily ip
A549 cells = test: MTT cytotoxicity assay, A549 lung cancer cells; format: cell-based, human
Procedure: (§2) Compounds active against at least one kinase among EGFR and class III RTKs were evaluated for their cytotoxic properties against two different human cancer cell lines, namely non small cells A549 lung cancer cells (sensitive to EGFR inhibitors)[46] and pancreatic BxPC3 adenocarcinoma (sensitive to both PDGFRβ and EGFR inhibitors)[47][48] cells. […] The results, expressed as IC50 values (μM) calculated from the dose-survival curves obtained after 72 h of drug treatment from the MTT test, are reported in Table 1.
(§3) All compounds, except derivative 27, were dissolved in DMSO just before the experiment, and a calculated amount of drug solution was added to the cell growth medium to a final solvent concentration of 0.5%, which had no discernible effect on cell killing. Compound 27 was dissolved in a 0.9% NaCl solution just before the experiment.
(§4) Human lung (A549), breast (MCF-7), pancreas (BxPC3), and colon (LoVo) carcinoma cell lines along with melanoma (A375) were obtained from American Type Culture Collection (ATCC, Rockville, MD). Human non-tumor embryonic kidney HEK293 cells were obtained from European Collection of Cell Cultures (ECACC, Salisbury, UK). Human cervical carcinoma A431cells were kindly provided by Prof. F. Zunino (Division of Experimental Oncology B, Istituto Nazionale dei Tumori, Milan, Italy). Human ovarian cancer 2008 cells were kindly provided by Prof. G. Marverti (Dept. of Biomedical Science of Modena University, Italy). Cell lines were maintained in the logarithmic phase at 37 °C in a 5% carbon dioxide atmosphere using the following culture media containing 10% fetal calf serum (Euroclone, Milan, Italy), antibiotics (50 units ∙ mL^−1 penicillin and 50 μg ∙ mL^−1 streptomycin) and 2 mM l-glutamine: i) RPMI-1640 medium (Euroclone) for MCF-7, A431, BxPC3 and 2008 cells; ii) F-12 HAM’S (Sigma Chemical Co.) for A549 and LoVo cells; iii) D-MEM medium (Euroclone) for HEK293 cells.
(§5) The growth inhibitory effect towards human cell lines was evaluated by means of MTT (tetrazolium salt reduction) assay. Briefly, 3–8 ∙ 10^3 cells/well, dependent upon the growth characteristics of the cell line, were seeded in 96-well microplates in growth medium (100 μL) and then incubated at 37 °C in a 5% carbon dioxide atmosphere. After 24 h, the medium was removed and replaced with a fresh one containing the test compound at the appropriate concentration. Triplicate cultures were established for each treatment. After 72 h, each well was treated with 10 μL of a 5 mg ∙ mL-1 MTT (3-(4,5-dimethylthiazol-2-yl)-2,5-diphenyltetrazolium bromide) saline solution, and after 5 h additional incubation, 100 μL of a sodium dodecylsulfate (SDS) solution in HCl 0.01 M were added. After overnight incubation, the inhibition of cell growth induced by the tested complexes was detected by measuring the absorbance of each well at 570 nm using a Bio-Rad 680 microplate reader (Bio-Rad, Hercules, CA). Mean absorbance for each drug dose was expressed as a percentage of the control untreated well absorbance and plotted vs drug concentration.

BxPC3 cells = test: MTT cytotoxicity assay, BxPC3 pancreatic adenocarcinoma cells; format: cell-based, human
Procedure: as §2, §3, §4, §5

HEK293 cells = test: MTT cytotoxicity assay, non-tumor HEK293 cells; format: cell-based, human
Procedure: F. Zunino (Division of Experimental Oncology B, Istituto Nazionale dei Tumori, Milan, Italy).
The growth inhibitory effect towards human cell lines was evaluated by means of MTT (tetrazolium salt reduction) assay. […] Triplicate cultures were established for each treatment.

panel of 48 kinases = test: KinomeScan primary screening (POC) at 10 μM; format: binding, human; conditions: POC values
Excerpt: Synthesized compounds were screened against a panel of 48 kinases selected within the ScanEDGE subset of DiscoverX (http://www.discoverx.com/services/drug-discovery-development-services/kinase-profiling/kinomescan/scanedge). The ScanEDGE includes 97 kinases and is an economical approach to assess compounds selectivity throughout the human kinome. All the wt-TKs along with some relevant mutants of Abl1 (T315I) and of EGFR (L858R and L858R/T790M) were chosen. The remaining 18 targets (3 Tyrosine Kinases-Like, TKLs; 15 Serine-Threonine Kinases, STKs) were selected among the remaining kinases in the ScanEDGE subset on the basis of their well established role in cancer (see Fig. S2 for a graphical representation of the selected kinases with reference to the kinome tree. Some references highlighting the role of each kinase in cancer are also reported in Table S3).
The compounds were evaluated using the KinomeScan™ platform (http://www.discoverx.com/services/drug-discovery-development-services/kinase-profiling/kinomescan), that measures the ability of the test compound to disrupt the complex between a high affinity ATP-mimic probe immobilized on a solid support and the kinase of interest. The KinomeScan is a very helpful technology for the fast and reliable screening of a number of compounds against a wide and customizable panel of kinases. Besides, it is not based on the use of hazardous radioactive ^32P-ATP and has a very low rate of false positive (<1%)[44]. The screening platform outputs a “Percent of Control” (POC) value, statistically correlated to the dissociation constant (Kd) value (http://www.discoverx.com/tools-resources/leadhunter-study-reports-data-analysis), for each pair of kinase/ligand. The POC is calculated as reported in equation (1):
Where: test compound signal = amount of kinase still binding the probe after treatment with test compound; negative control signal = amount of kinase still binding the probe after treatment with DMSO (100% control); positive control signal = amount of kinase still binding the probe after treatment with control compound (0% control).
(§6) The compounds were tested at high concentration (10 μM), in order to highlight not only the main target but also the off-targets. The results of the preliminary screening are reported as heat map (Fig. 4; see also Table S4 for all the measured values), in which the compounds are grouped on the basis of the 6 or 5 substituent at the pyrimidine ring.

EGFR = molecular target: T1, EGFR (Homo sapiens, UniProt P00533); test: KinomeScan primary screening (POC) at 10 μM, EGFR; format: binding; conditions: POC values
T1 construct: purchased DiscoverX (KinomeScan, ScanEDGE subset)
Procedure: Synthesized compounds were screened against a panel of 48 kinases selected within the ScanEDGE subset of DiscoverX (http://www.discoverx.com/services/drug-discovery-development-services/kinase-profiling/kinomescan/scanedge). The ScanEDGE includes 97 kinases and is an economical approach to assess compounds selectivity throughout the human kinome. All the wt-TKs along with some relevant mutants of Abl1 (T315I) and of EGFR (L858R and L858R/T790M) were chosen. […]
The compounds were evaluated using the KinomeScan™ platform (http://www.discoverx.com/services/drug-discovery-development-services/kinase-profiling/kinomescan), that measures the ability of the test compound to disrupt the complex between a high affinity ATP-mimic probe immobilized on a solid support and the kinase of interest. […] The POC is calculated as reported in equation (1): […]
as §6

T1 sequence (P00533 25-1210): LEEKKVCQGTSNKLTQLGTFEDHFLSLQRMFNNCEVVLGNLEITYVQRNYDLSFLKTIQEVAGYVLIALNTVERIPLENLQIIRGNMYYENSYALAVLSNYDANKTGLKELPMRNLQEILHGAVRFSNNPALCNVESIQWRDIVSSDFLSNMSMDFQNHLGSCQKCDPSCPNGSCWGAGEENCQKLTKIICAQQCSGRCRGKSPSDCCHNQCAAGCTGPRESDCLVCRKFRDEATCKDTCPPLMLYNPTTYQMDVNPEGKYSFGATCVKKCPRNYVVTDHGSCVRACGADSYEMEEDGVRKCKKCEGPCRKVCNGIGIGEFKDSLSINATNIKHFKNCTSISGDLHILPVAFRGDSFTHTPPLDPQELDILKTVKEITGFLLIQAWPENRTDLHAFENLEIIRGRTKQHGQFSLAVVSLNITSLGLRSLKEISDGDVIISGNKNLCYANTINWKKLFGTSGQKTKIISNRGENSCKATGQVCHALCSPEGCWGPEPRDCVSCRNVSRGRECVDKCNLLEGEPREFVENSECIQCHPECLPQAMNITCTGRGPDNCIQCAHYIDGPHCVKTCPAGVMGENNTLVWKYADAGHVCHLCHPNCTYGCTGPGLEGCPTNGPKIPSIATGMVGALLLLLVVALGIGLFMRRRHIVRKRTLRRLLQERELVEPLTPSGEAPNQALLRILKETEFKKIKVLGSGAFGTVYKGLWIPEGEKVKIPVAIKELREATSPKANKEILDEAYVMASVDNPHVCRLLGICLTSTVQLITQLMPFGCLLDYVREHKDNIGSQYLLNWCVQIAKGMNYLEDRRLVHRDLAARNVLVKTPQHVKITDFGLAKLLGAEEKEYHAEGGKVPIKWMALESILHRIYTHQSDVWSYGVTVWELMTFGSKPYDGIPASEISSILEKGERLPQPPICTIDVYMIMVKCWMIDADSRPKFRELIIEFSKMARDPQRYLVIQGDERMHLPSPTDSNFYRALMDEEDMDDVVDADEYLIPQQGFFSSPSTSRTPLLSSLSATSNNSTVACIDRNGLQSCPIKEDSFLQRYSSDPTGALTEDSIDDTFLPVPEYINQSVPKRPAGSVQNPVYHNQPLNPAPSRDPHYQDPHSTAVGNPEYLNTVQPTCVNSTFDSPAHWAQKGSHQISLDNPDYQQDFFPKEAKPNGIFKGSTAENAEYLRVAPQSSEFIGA

Compound | Inhibition of tumor growth (%) ([1]; daily ip from day 9, day 20, versus vehicle control) | Average tumor weight (mean±S.D., g) ([1]; daily ip from day 9, day 20) [g] | Body weight loss (in words) [2] | Highest not toxic dose as determined by MTD studies [3] [mg/kg] | IC50 (A549 cells; Homo sapiens, A549, 72 h, MTT test, 72 h of drug treatment, read-out: A549 IC50 (μM) ± SD) [µM] | Potency relative to SU (A549) (A549 cells; ratio between IC50 of sunitinib and IC50 of tested compound, A549) | IC50 (BxPC3 cells; Homo sapiens, BXPC-3, MTT test, 72 h of drug treatment, read-out: BxPC3 IC50 (μM) ± SD) [µM] | Potency relative to SU (BxPC3) (BxPC3 cells; ratio between IC50 of sunitinib and IC50 of tested compound, BxPC3) | IC50 (HEK293 cells; Homo sapiens, HEK293, MTT test, 72 h, non-tumor cells, read-out: HEK293 IC50 (μM) ± SD) [µM] | Selectivity Index (HEK293 cells; IC50 toward non cancerous HEK293 cells divided by the average IC50 for the malignant cells (A549, BxPC3)) | Selectivity profile (kinases targeted) in primary screening (panel of 48 kinases) | Activity against EGFR in primary screening (EGFR)
[NH2][Pt]([NH2])([Cl])[Cl] [CDDP, cisplatin, reference compound] | 71.63% and 71.6% | 0.139 ± 0.09 | elevated body weight loss | 1.5 |  |  |  |  |  |  |  | 
O=C(Nc1ccccc1)Nc1ccc(Nc2cc(Nc3ccccc3)ncn2)cc1 [Compound 7] |  |  |  |  | 5.13 ± 0.94 | 1.21 | 4.6 ± 0.85 | 1.10 | 3.14 ± 0.57 | 0.64 | class III RTK | very poor activity
